pKi: −log10 of the molar value.
Columns and labels:
rat mGluR5 = biological target: T1, rat mGluR5 (Rattus norvegicus, UniProt P31424); test: rat mGluR5 receptor binding ([3H]-M-MPEP, rat cerebro-cortical membranes); conditions: for pKi: rat cerebro-cortical membranes, [3H]-M-MPEP 2 nM; for binding affinity to rat mGlu5 receptors: statement in words
T1 construct: Rat cerebro-cortical membrane preparation was used; from tissue; host or cells: rat cerebral cortex membranes
Protocol: (§1) MGluR5 Receptor Binding Tests
(§2) MGluR5 receptor binding was determined according to Gasparini et al. (Bioorg. Med. Chem. Lett. 2000, 12:407-409) with modifications. Rat cerebro-cortical membrane preparation was used to determine the binding characteristics of reference compounds and novel compounds to the rat mGluR5. The A18 cell line expressing hmGluR5a (purchased from Euroscreen) was used to determine binding characteristics of the chemical compounds to the human mGluR5a receptor. [3H]-M-MPEP (2 nM) was used as a radioligand. The nonspecific binding was determined in the presence of 10 μM M-MPEP.

human mGluR5a receptor = biological target: T2, human mGluR5a receptor (Homo sapiens, UniProt P41594); test: human mGluR5a receptor binding ([3H]-M-MPEP, A18 cell line expressing hmGluR5a); conditions: for pKi: A18 cell line expressing hmGluR5a, [3H]-M-MPEP 2 nM; for binding affinity to human mGlu5 receptors: statement in words
T2 construct: host or cells: A18 cell line
T2 sequence (P41594 21-1180 isoform P41594-2 limits assumed): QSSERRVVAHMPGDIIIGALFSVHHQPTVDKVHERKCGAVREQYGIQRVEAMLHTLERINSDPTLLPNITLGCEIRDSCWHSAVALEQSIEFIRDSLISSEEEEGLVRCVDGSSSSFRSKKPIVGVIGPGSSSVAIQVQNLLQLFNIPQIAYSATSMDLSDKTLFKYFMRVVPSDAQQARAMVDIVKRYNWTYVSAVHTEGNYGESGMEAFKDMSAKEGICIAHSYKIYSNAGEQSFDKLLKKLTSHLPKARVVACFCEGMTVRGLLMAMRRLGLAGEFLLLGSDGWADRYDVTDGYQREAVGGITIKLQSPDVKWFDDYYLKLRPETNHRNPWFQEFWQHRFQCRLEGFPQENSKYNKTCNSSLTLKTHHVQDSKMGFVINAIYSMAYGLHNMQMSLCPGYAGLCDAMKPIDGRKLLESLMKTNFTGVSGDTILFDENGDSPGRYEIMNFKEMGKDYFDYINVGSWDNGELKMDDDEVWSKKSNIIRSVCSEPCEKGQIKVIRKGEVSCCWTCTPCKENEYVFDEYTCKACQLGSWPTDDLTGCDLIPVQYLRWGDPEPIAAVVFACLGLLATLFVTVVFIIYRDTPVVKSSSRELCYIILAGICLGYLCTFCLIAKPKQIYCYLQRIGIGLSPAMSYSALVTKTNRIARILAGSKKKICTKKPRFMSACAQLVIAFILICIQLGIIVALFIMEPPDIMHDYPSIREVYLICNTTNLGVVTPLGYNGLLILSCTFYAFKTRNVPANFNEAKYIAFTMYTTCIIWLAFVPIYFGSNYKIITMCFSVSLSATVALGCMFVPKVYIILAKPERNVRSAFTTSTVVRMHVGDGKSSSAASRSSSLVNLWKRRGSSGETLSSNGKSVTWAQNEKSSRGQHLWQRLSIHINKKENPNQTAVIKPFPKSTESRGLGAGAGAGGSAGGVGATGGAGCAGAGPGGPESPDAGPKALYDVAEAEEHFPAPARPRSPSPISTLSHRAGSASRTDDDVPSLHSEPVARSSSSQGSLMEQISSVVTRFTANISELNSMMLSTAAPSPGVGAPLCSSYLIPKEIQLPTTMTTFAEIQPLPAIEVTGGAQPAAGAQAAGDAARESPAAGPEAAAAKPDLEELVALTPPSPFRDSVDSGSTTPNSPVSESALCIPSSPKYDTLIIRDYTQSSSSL
Protocol: as §1, §2

male Wistar rats = test: Anxiolytic activity in the punished drinking test (Vogel); assay type: in vivo, rat; conditions: for Punished drinking, MED: oral, 60 min before test, MED = dose increasing accepted shocks above 35, male Wistar rats; for anxiolytic activity after oral administration: statement in words
From the text: Measurement of Anxiolytic Activity in the Punished Drinking Test
The method described by Vogel et al. (Psychopharmacology (Berl.) 1971, 21:1-7) was used with modifications. On the day preceding the test day male Wistar rats (180-220 g) were placed into the test chambers which were equipped with a metal water spout mounted on the wall of the chamber and a metal grid floor for delivering electric shocks. During a 5-min adaptation period the animals had free access to the drinking spout. Following the adaptation session rats were deprived of drinking water for 24 hours prior to the test. On the day of the measurement, the animals were orally treated with the test compounds and 60 minutes later were placed into the test chambers where they had access to the drinking water. In the test session drinking was punished by delivering electric shocks (1 mA, 1 sec) through the drinking spout following every 10 licks during a 270 second punishment period. Number of licks and shocks delivered were recorded and stored in a computer. Anxiolytic activity is reflected by the increased number of accepted shocks. Minimum effective doses (MED, defined as the dose which increased the number of accepted shocks above 35) were determined and used to characterize the anxiolytic potency of the tested compounds.

T1 sequence (P31424 21-1203): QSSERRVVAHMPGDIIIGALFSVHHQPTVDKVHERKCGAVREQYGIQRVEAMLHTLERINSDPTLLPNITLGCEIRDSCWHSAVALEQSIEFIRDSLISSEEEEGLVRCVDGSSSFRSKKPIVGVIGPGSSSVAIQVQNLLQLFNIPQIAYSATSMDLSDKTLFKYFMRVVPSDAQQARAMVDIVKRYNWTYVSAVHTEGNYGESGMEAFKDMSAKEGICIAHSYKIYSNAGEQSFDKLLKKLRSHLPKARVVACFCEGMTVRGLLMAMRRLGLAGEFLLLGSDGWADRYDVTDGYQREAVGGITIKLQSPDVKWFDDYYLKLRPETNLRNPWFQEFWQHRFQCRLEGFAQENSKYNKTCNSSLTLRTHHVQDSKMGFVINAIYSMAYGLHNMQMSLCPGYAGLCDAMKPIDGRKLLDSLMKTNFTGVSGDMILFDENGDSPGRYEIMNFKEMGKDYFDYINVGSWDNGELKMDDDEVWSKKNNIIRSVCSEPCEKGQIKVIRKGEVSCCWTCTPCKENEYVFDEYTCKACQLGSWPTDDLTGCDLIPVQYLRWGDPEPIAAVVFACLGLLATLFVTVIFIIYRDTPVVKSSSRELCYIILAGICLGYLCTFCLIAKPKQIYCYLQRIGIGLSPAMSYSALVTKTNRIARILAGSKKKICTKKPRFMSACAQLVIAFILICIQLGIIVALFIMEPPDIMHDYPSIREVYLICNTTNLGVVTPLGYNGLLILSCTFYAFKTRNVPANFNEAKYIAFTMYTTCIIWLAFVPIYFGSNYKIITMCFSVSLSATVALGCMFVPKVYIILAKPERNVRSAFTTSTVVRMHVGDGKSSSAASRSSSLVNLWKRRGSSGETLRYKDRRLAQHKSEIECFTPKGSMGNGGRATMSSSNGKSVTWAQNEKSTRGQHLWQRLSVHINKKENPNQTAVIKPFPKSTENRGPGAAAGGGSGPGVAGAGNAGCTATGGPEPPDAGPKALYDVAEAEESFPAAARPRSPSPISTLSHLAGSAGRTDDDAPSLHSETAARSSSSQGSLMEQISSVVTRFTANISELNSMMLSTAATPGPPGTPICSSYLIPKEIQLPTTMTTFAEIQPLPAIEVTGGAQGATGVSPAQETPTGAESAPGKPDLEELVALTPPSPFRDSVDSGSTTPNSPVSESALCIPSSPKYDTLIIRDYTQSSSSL

pKi (rat mGluR5)	binding affinity to rat mGlu5 receptors (rat mGluR5)	pKi (human mGluR5a receptor)	binding affinity to human mGlu5 receptors (human mGluR5a receptor)	Structure (SMILES)	Punished drinking, MED (male Wistar rats) [mg/kg]	anxiolytic activity after oral administration (male Wistar rats)
8.14	high affinity	8.06	high affinity	N#Cc1cc(F)cc(S(=O)(=O)c2sc3ncc(N)cc3c2-c2cccc(Cl)c2)c1 [Compound 2, 5-Amino-2-(3-cyano-5-fluoro-benzenesulfonyl)-3-(3-chlorophenyl)-thieno[2,3-b]-pyridine]	5	remarkable anxiolytic activity
8.72	high affinity	8.49	high affinity	N#Cc1cc(F)cc(S(=O)(=O)c2sc3ncc(N)cc3c2-c2cccc(F)c2)c1 [Compound 1, 5-Amino-2-(3-cyano-5-fluoro-benzenesulfonyl)-3-(3-fluorophenyl)-thieno[2,3-b]-pyridine]	3	remarkable anxiolytic activity
